The values that follow come from patent US20200291018A1, “TAM KINASE INHIBITORS” (SYROS PHARMACEUTICALS, INC., priority 2017, published 2020).

One experiment concerns the target T1, FLT3 (Homo sapiens, UniProt P36888).
T1 sequence (P36888 27-993): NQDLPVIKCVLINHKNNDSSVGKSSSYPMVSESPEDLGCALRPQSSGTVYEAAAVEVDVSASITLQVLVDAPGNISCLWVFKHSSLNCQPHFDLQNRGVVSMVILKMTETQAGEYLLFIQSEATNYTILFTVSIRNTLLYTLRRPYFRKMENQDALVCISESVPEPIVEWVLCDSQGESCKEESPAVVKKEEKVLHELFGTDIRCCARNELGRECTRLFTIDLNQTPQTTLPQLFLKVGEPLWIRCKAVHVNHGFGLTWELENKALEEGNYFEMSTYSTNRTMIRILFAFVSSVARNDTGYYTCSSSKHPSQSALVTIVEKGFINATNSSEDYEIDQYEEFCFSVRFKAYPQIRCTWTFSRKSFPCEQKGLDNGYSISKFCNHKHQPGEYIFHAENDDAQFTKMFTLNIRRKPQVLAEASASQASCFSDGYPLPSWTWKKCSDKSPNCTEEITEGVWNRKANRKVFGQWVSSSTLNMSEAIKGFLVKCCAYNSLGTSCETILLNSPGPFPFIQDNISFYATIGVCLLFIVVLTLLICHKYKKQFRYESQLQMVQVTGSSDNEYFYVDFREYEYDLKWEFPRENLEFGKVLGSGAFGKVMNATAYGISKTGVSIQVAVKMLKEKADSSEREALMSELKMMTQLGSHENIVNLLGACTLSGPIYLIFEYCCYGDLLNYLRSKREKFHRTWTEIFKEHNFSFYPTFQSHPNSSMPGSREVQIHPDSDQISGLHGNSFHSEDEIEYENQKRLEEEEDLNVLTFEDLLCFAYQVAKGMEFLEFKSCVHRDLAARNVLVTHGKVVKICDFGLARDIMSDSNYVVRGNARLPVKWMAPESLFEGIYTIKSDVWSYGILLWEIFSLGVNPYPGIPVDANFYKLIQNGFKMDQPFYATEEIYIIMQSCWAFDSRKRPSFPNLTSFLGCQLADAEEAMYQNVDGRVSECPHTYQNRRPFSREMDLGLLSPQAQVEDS
In words: TR-FRET kinase activity assay, FLT3. Particulars: ATP at Km, 60 minutes. The format is biochemical. The method in brief:
(§1)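 Buffer 50 mM HEPES pH 7.5/10 mM MgCl2/1 mM EGTA/0.01% Brij 35/1 mM DTT, RT. Km ATP per kinase, labeled peptide, 60 min; 12.5 mM EDTA stop; Eu-Ab 30 min dark; TR-FRET → IC50.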
A general note: TR-FRET usually uses a lanthanide donor and a delayed reading to cut background.

The target in the next experiment is T2, MERTK (Homo sapiens, UniProt Q12866).
T2 sequence (Q12866 21-999): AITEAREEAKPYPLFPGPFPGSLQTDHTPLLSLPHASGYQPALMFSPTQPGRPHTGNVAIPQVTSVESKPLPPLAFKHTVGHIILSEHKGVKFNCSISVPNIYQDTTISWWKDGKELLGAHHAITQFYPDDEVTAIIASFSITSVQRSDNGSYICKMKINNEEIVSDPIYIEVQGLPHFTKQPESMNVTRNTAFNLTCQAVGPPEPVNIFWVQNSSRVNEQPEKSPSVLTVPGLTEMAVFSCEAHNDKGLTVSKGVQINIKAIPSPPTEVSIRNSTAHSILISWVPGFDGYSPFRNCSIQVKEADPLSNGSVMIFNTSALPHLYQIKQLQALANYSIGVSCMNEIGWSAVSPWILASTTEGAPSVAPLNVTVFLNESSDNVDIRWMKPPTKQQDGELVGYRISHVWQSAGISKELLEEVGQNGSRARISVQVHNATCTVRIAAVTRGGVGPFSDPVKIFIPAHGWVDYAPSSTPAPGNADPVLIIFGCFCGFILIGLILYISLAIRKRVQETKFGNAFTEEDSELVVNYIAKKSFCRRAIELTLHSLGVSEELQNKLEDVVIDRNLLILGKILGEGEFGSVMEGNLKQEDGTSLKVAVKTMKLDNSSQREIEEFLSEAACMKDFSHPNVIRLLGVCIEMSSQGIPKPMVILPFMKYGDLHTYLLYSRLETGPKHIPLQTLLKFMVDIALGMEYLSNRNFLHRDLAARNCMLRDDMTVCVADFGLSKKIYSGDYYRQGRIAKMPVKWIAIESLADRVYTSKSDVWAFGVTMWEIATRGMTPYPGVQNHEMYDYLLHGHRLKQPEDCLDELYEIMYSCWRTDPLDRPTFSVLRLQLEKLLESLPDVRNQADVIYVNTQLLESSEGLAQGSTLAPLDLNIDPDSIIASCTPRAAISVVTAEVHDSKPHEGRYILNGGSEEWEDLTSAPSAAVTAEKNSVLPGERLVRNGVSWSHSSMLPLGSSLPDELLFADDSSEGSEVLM
As to the kind of experiment: TR-FRET kinase activity assay, MERTK. The format is biochemical. Particulars: for IC50: TR-FRET activity assay, ATP at Km, 60 minutes, read-out: Mer IC50; for Mer/Flt3 ratio (FLT3 IC50/Mer IC50): ratio calculated as FLT3 IC50/Mer IC50. In outline: as §1

SMILES strings stand for the structures.

As usually defined, the IC50 is the point on the concentration scale where inhibition reaches its midpoint.

For `COC(=O)N[C@H]1C[C@@H](Oc2ncc([C@H]3CC[C@H](O)CC3)c3nc(N[C@@H](C)CC(F)(F)F)ncc23)C1` [Compound 435], the IC50 at FLT3 and on MERTK was at most 100 nM throughout. Besides, at MERTK, the “Mer/Flt3 ratio (FLT3 IC50/Mer IC50)” value was “+++ (a ratio of >100)”.
On to `CC(=O)N1[C@@H]2CC[C@H]1C[C@H](Oc1ncc([C@H]3CC[C@H](O)CC3)c3nc(N[C@@H](C)CC(F)(F)F)ncc13)C2` [Compound 436], for which the IC50 is 100 to 1000 nM against FLT3 and at most 100 nM on MERTK. Also, the “Mer/Flt3 ratio (FLT3 IC50/Mer IC50)” value on MERTK is “+++ (a ratio of >100)”.
The like results for `C[C@@H](CC(F)(F)F)Nc1ncc2c(O[C@@H]3C[C@H]4CC[C@@H](C3)N4C3COC3)ncc([C@H]3CC[C@H](O)CC3)c2n1` [Compound 437] were, in that order, 100 to 1000 nM, at most 100 nM and “+++ (a ratio of >100)”.
